Laboratory results from PubChem BioAssay (NCI).
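Cells were grown in 96-well plates and exposed to each compound for 48 hours at five concentrations; endpoints were interpolated linearly between bracketing concentrations, or set to the highest concentration if not reached. GI50: concentration for 50% inhibition of growth. At the TGI there is no net growth.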

Legend:
Experiment in all cases: NCI anticancer screen, dose series, 48 h
UACC-62 melanoma = system: UACC-62 melanoma
A498 renal = system: A498 renal
SR leukemia = system: SR leukemia
NCI-H23 lung = system: NCI-H23 lung
RXF 393 renal = system: RXF 393 renal
A549 NSCLC = system: A549 NSCLC
ACHN renal = system: ACHN renal
NCI-H460 lung = system: NCI-H460 lung
NCI-H226 lung = system: NCI-H226 lung
DU-145 prostate = system: DU-145 prostate
SNB-75 CNS = system: SNB-75 CNS
PC-3 prostate = system: PC-3 prostate
UO-31 renal = system: UO-31 renal
MDA-MB-435 = system: MDA-MB-435
SF-295 CNS = system: SF-295 CNS
MDA-MB-231 breast = system: MDA-MB-231 breast
HCC-2998 colon = system: HCC-2998 colon
OVCAR-5 ovarian = system: OVCAR-5 ovarian
SNB-19 CNS = system: SNB-19 CNS
NCI/ADR-RES ovarian = system: NCI/ADR-RES ovarian
HCT-15 colon = system: HCT-15 colon
786-0 renal = system: 786-0 renal
OVCAR-4 ovarian = system: OVCAR-4 ovarian
OVCAR-3 ovarian = system: OVCAR-3 ovarian
HT29 colon = system: HT29 colon
U251 CNS = system: U251 CNS
SF-268 CNS = system: SF-268 CNS
UACC-257 melanoma = system: UACC-257 melanoma
TK-10 renal = system: TK-10 renal
CCRF-CEM leukemia = system: CCRF-CEM leukemia
SN12C renal = system: SN12C renal
HOP-92 NSCLC = system: HOP-92 NSCLC
MCF7 breast = system: MCF7 breast
COLO 205 colon = system: COLO 205 colon
SF-539 CNS = system: SF-539 CNS
HOP-62 NSCLC = system: HOP-62 NSCLC
HL-60(TB) leukemia = system: HL-60(TB) leukemia
M14 melanoma = system: M14 melanoma
MOLT-4 leukemia = system: MOLT-4 leukemia
SK-MEL-2 melanoma = system: SK-MEL-2 melanoma
T-47D breast = system: T-47D breast
OVCAR-8 ovarian = system: OVCAR-8 ovarian
KM12 colon = system: KM12 colon
HCT-116 colon = system: HCT-116 colon
K-562 leukemia = system: K-562 leukemia
LOX IMVI melanoma = system: LOX IMVI melanoma
NCI-H522 lung = system: NCI-H522 lung
CAKI-1 renal = system: CAKI-1 renal
SK-MEL-5 melanoma = system: SK-MEL-5 melanoma
RPMI-8226 leukemia = system: RPMI-8226 leukemia
HS 578T breast = system: HS 578T breast
SK-OV-3 ovarian = system: SK-OV-3 ovarian
SK-MEL-28 melanoma = system: SK-MEL-28 melanoma
IGROV1 ovarian = system: IGROV1 ovarian
BT-549 breast = system: BT-549 breast
MALME-3M melanoma = system: MALME-3M melanoma
SW-620 colon = system: SW-620 colon

CCN(CC)CCCCNc1ncc2cc(-c3cc(OC)cc(OC)c3)c(NC(=O)NC(C)(C)C)nc2n1
GI50 (UACC-62 melanoma): 4.2 µM
TGI (UACC-62 melanoma): 15.1 µM
GI50 (A498 renal): 0.0209 µM
TGI (A498 renal): 0.097 µM
GI50 (SR leukemia): 2.11 µM
TGI (SR leukemia): 5.68 µM
GI50 (NCI-H23 lung): 11.1 µM
TGI (NCI-H23 lung): 30.1 µM
GI50 (RXF 393 renal): 1.63 µM
TGI (RXF 393 renal): 11.4 µM
GI50 (A549 NSCLC): 7.84 µM
TGI (A549 NSCLC): 23 µM
GI50 (ACHN renal): 3.92 µM
TGI (ACHN renal): 16.4 µM
GI50 (NCI-H460 lung): 6.85 µM
TGI (NCI-H460 lung): 20.8 µM
GI50 (NCI-H226 lung): 2.57 µM
TGI (NCI-H226 lung): 24.8 µM
GI50 (DU-145 prostate): 8.08 µM
TGI (DU-145 prostate): 22.9 µM
GI50 (SNB-75 CNS): 0.372 µM
TGI (SNB-75 CNS): 13.1 µM
GI50 (PC-3 prostate): 7.3 µM
TGI (PC-3 prostate): 26 µM
GI50 (UO-31 renal): 1.37 µM
TGI (UO-31 renal): 15.5 µM
GI50 (MDA-MB-435): 4.87 µM
TGI (MDA-MB-435): 18.2 µM
GI50 (SF-295 CNS): 3.59 µM
TGI (SF-295 CNS): 10.3 µM
GI50 (MDA-MB-231 breast): 5.89 µM
TGI (MDA-MB-231 breast): 17 µM
GI50 (HCC-2998 colon): 12.7 µM
TGI (HCC-2998 colon): 26 µM
GI50 (OVCAR-5 ovarian): 15.5 µM
TGI (OVCAR-5 ovarian): 31.4 µM
GI50 (SNB-19 CNS): 13.7 µM
TGI (SNB-19 CNS): 28.7 µM
GI50 (NCI/ADR-RES ovarian): 8.01 µM
TGI (NCI/ADR-RES ovarian): 27.3 µM
GI50 (HCT-15 colon): 3.63 µM
TGI (HCT-15 colon): 17.5 µM
GI50 (786-0 renal): 5.42 µM
TGI (786-0 renal): 19.3 µM
GI50 (OVCAR-4 ovarian): 1.84 µM
TGI (OVCAR-4 ovarian): 25.5 µM
GI50 (OVCAR-3 ovarian): 11.9 µM
TGI (OVCAR-3 ovarian): 25 µM
GI50 (HT29 colon): 3.31 µM
TGI (HT29 colon): 13.9 µM
GI50 (U251 CNS): 2.77 µM
TGI (U251 CNS): 17.5 µM
GI50 (SF-268 CNS): 5.47 µM
TGI (SF-268 CNS): 21.1 µM
GI50 (UACC-257 melanoma): 1.78 µM
TGI (UACC-257 melanoma): 3.68 µM
GI50 (TK-10 renal): 6.77 µM
TGI (TK-10 renal): 21.1 µM
GI50 (CCRF-CEM leukemia): 3.96 µM
TGI (CCRF-CEM leukemia): 66.1 µM
GI50 (SN12C renal): 3.52 µM
TGI (SN12C renal): 15.6 µM
GI50 (HOP-92 NSCLC): 2.11 µM
TGI (HOP-92 NSCLC): 18.4 µM
GI50 (MCF7 breast): 5.35 µM
TGI (MCF7 breast): 23.1 µM
GI50 (COLO 205 colon): 8.08 µM
TGI (COLO 205 colon): 22.1 µM
GI50 (SF-539 CNS): 1.99 µM
TGI (SF-539 CNS): 7.16 µM
GI50 (HOP-62 NSCLC): 12.1 µM
TGI (HOP-62 NSCLC): 27.2 µM
GI50 (HL-60(TB) leukemia): 1.99 µM
TGI (HL-60(TB) leukemia): 4.8 µM
GI50 (M14 melanoma): 3.1 µM
TGI (M14 melanoma): 9.65 µM
GI50 (MOLT-4 leukemia): 3.66 µM
TGI (MOLT-4 leukemia): 19.4 µM
GI50 (SK-MEL-2 melanoma): 3.67 µM
TGI (SK-MEL-2 melanoma): 13 µM
GI50 (T-47D breast): 10.8 µM
TGI (T-47D breast): 29.3 µM
GI50 (OVCAR-8 ovarian): 5.53 µM
TGI (OVCAR-8 ovarian): 26.6 µM
GI50 (KM12 colon): 9.65 µM
TGI (KM12 colon): 23 µM
GI50 (HCT-116 colon): 4.13 µM
TGI (HCT-116 colon): 16.3 µM
GI50 (K-562 leukemia): 2.95 µM
TGI (K-562 leukemia): 9.37 µM
GI50 (LOX IMVI melanoma): 5.34 µM
TGI (LOX IMVI melanoma): 18.8 µM
GI50 (NCI-H522 lung): 6.45 µM
TGI (NCI-H522 lung): 18.4 µM
GI50 (CAKI-1 renal): 3.99 µM
TGI (CAKI-1 renal): 17 µM
GI50 (SK-MEL-5 melanoma): 6.19 µM
TGI (SK-MEL-5 melanoma): 18 µM
GI50 (RPMI-8226 leukemia): 4.92 µM
TGI (RPMI-8226 leukemia): 27.9 µM
GI50 (HS 578T breast): 4.72 µM
TGI (HS 578T breast): 28 µM
GI50 (SK-OV-3 ovarian): 4.91 µM
TGI (SK-OV-3 ovarian): 18.2 µM
GI50 (SK-MEL-28 melanoma): 4.67 µM
TGI (SK-MEL-28 melanoma): 12.4 µM
GI50 (IGROV1 ovarian): 3.64 µM
TGI (IGROV1 ovarian): 16.3 µM
GI50 (BT-549 breast): 2.15 µM
TGI (BT-549 breast): 18 µM
GI50 (MALME-3M melanoma): 1.96 µM
TGI (MALME-3M melanoma): 4.17 µM
GI50 (SW-620 colon): 8.15 µM
TGI (SW-620 colon): 23 µM
